Experiment [1] deals with PGE2 production from synovial cells of rat. Kind of experiment: Activity against the PGE2 production from cultured synovial cell of rat. Type of experiment: cell-based, rat (Lewis male). The following applies: 24 h, cultured rat synovial cells stimulated with neutrophil-originating factor (IL-1-like factor), PGE2 after one day by radioimmunoassay, read-out: Inhibitory activity against PGE2 production from synovial cells of rat IC50. On the procedure:
Activity against the PGE2 production from cultured synovial cell of rat
A synovial membrane taken out of the knee joint of a Lewis male rat was treated with collagenase-trypsin to separate off synovial cells. A test compound was added to a system prepared by the subculture of the synovial cells. The cells were stimulated with a neutrophil-originating factor (IL-1-like factor) to induce PGE2 production. After one day, the amount of PGE2 liberated into the culture medium was determined by radioimmunoassay (see R. Hashida et al., Prostaglandins, 27 (1984), 697).

Experiment [2] relates to LTB4 production from human neutrophil. The experiment is described as follows: Activity against LTB4 production from human neutrophil. Type of experiment: cell-based. Conditions: human peripheral blood neutrophils, preincubated 37° C. 5 minutes, calcium ionophore A23187 2 μg/ml, 10 minutes, radioimmunoassay, read-out: Inhibitory activity against LTB4 production from human neutrophil IC50. The protocol: Activity against LTB4 production from human neutrophil
A test compound was added to a suspension of neutrophil separated from the human peripheral blood and the obtained mixture was preincubated at 37° C. for 5 minutes, followed by the addition of calcium ionophore A23187 in an amount of 2 μg/ml. After 10 minutes, the obtained mixture was cooled to stop the reaction. The amount of LTB4 contained in the supernatant of the reaction mixture was determined by radioimmunoassay (see H. Shirota et al., Arzneim Forsol Drug Res., 37 (1987) 930).

Bounds are passed on as bounds.

In the case of `C/C=C(\C(=O)O)c1cc(OC)c(O)c2c(Cc3ccccc3)cccc12` [Example 1, (Z)-2-(5-Benzyl-4-hydroxy-3-methoxy-1-naphthyl)-2-butenoic acid], the IC50 is 420 nM in experiment [1] and 510 nM in experiment [2].

Consider `CC/C=C(\C(=O)O)c1cc(OC)c(O)c2c(Cc3ccccc3)cccc12` [Example 2, (Z)-2-(5-Benzyl-4-hydroxy-3-methoxy-1-naphthyl)-2-pentenoic acid], for which the IC50 in experiment [1] amounted to 620 nM; in experiment [2], 320 nM.

As for `CCC/C=C(\C(=O)O)c1cc(OC)c(O)c2c(Cc3ccccc3)cccc12` [Example 3, (Z)-2-(5-Benzyl-4-hydroxy-3-methoxy-1-naphthyl)-2-hexenoic acid], the IC50 in experiment [1] turned out to be 1450 nM; in experiment [2] it was 520 nM.

Turning to `COc1cc(/C(=C/C(C)C)C(=O)O)c2cccc(Cc3ccccc3)c2c1O` [Example 4, (Z)-2-(5-Benzyl-4-hydroxy-3-methoxy-1-naphthyl)-4-methyl-2-pentenoic acid], the half-maximal inhibitory concentration (IC50) worked out at 2760 nM in experiment [1] and 1680 nM in experiment [2].

As to `C=CC/C=C(\C(=O)O)c1cc(OC)c(O)c2c(Cc3ccccc3)cccc12` [Example 5, (Z)-2-(5-Benzyl-4-hydroxy-3-methoxy-1-naphthyl)-2,5-hexadienoic acid], the IC50 amounted to 1640 nM in experiment [1] and 510 nM in experiment [2].

For the compound `CCCC/C=C(\C(=O)O)c1cc(OC)c(O)c2c(Cc3ccccc3)cccc12` [Example 7, (Z)-2-(5-benzyl-4-hydroxy-3-methoxy-1-naphthyl)-2-heptenoic acid], the values for the IC50 in experiment [1] and in experiment [2] were 3100 nM and greater than 10000 nM, respectively.

With `COc1cc(/C(=C/c2ccccc2)C(=O)O)c2cccc(Cc3ccccc3)c2c1O` [Example 10, (Z)-2-(5-benzyl-4-hydroxy-3-methoxy-1-naphthyl)-3-phenyl-2-propenoic acid], the IC50 in experiment [1] worked out at 2100 nM; in experiment [2] it was 1860 nM.

`COc1cc(/C(=C/Cc2ccccc2)C(=O)O)c2cccc(Cc3ccccc3)c2c1O` [Example 11, (Z)-2-(5-benzyl-4-hydroxy-3-methoxy-1-naphthyl)-4-phenyl-2-butenoic acid]: the values for the concentration for half-maximal inhibition (IC50) in experiment [1] and in experiment [2] were 1880 nM and 1090 nM, respectively.

Turning to `COc1cc(/C(=C/C2CCCCC2)C(=O)O)c2cccc(Cc3ccccc3)c2c1O` [Example 12, (Z)-2-(5-benzyl-4-hydroxy-3-methoxy-1-naphthyl)-3-cyclohexyl-2-propenoic acid], the concentration for half-maximal inhibition (IC50) was found to be 3540 nM in experiment [1] and 10000 nM in experiment [2].

On to `COc1cc(/C(=C/C(C)(C)C)C(=O)O)c2cccc(Cc3ccccc3)c2c1O` [Example 13, (Z)-2-(5-benzyl-4-hydroxy-3-methoxy-1-naphthyl)-4,4-dimethyl-2-pentenoic acid], for which the figures for the IC50 in experiment [1] and in experiment [2] were 3350 nM and 830 nM, respectively.

As to `C=C(C(=O)O)c1cc(OC)c(O)c2c(Cc3ccccc3)cccc12` [Example 14, 2-(5-benzyl-4-hydroxy-3-methoxy-1-naphthyl)-2-propenoic acid], the results for the IC50 in experiment [1] and in experiment [2] were 3230 nM and 720 nM, respectively.

For the compound `COc1cc(C(C(=O)O)=C(C)C)c2cccc(Cc3ccccc3)c2c1O` [Example 15, 2-(5-benzyl-4-hydroxy-3-methoxy-1-naphthyl)-3-methyl-2-butenoic acid], the results for the IC50 in experiment [1] and in experiment [2] were 1070 nM and 730 nM, respectively.

Consider `C/C=C(/C(=O)O)c1cc(OC)c(O)c2c(Cc3ccccc3)cccc12` [Example 40, (E)-2-(5-Benzyl-4-hydroxy-3-methoxy-1-naphthyl)-2-butenoic acid], for which the IC50 in experiment [1] was determined as 2040 nM; in experiment [2] it was 3160 nM.

With `COc1cc(C(C(=O)O)=C(Cl)Cl)c2cccc(Cc3ccccc3)c2c1O` [Example 55, 2-(5-Benzyl-4-hydroxy-3-methoxy-1-naphthyl)-3,3-dichloro-2-propenoic acid], the IC50 is 280 nM in experiment [1] and 2350 nM in experiment [2].

As usually defined, the IC50 is the concentration that gives 50% inhibition.

The values are drawn from patent US5319139A, “Naphthalene derivatives” (Eisai Co. Ltd., priority 1990, dated 1994).
